Results on 25 compounds are retold here after BindingDB's records for doi:10.1016/j.bmcl.2005.07.039 (Universit&#233, 2005).

For one experiment, the target named is Sigma non-opioid intracellular receptor 1 (Cavia porcellus) (UniProt Q60492). Kind of experiment: Inhibitory activity against Opioid receptor sigma 1 in guinea pig cerebral cortex using [3H](+)-pentazocine as radio ligand at pH 7.5 for 150 min at 22 C.
Sequence of Sigma non-opioid intracellular receptor 1 (Cavia porcellus) (Q60492 whole entry, looked up): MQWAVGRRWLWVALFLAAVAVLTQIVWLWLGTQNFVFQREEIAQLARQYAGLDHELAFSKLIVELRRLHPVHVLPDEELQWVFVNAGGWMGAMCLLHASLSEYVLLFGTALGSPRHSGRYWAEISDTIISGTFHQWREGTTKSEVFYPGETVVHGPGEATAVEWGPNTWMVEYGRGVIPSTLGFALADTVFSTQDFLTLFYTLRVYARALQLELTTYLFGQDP
As to `CN(CCCCCCn1c(O)c2n(c1=O)Cc1ccccc1C2)CCc1ccccc1` [(S)-2-[6-(Methyl-phenethyl-amino)-hexyl]-10,10a-dihydro-5H-imidazo[1,5-b]isoquinoline-1,3-dione], 29.5 nM corresponded to half-maximal inhibition (IC50).

A further experiment shares this target. Kind of experiment: Inhibitory activity against opioid receptor sigma 1 in guinea pig cerebral cortex using [3H](+)-pentazocine as radio ligand at pH 7.5 for 150 min at 22 degree C.
For the compound `CN(CCCCCCn1c(O)c2n(c1=O)Cc1ccccc1C2)Cc1ccccc1` [(S)-2-[6-(Benzyl-methyl-amino)-hexyl]-10,10a-dihydro-5H-imidazo[1,5-b]isoquinoline-1,3-dione], 9.4 nM corresponded to half-maximal inhibition (IC50). That is a single-digit nanomolar value.

On to `CN(CCCCCn1c(O)c2n(c1=O)Cc1ccccc1C2)Cc1ccccc1` [(S)-2-[5-(Benzyl-methyl-amino)-pentyl]-10,10a-dihydro-5H-imidazo[1,5-b]isoquinoline-1,3-dione], for which the midpoint of inhibition, the IC50, lay at 5 nM.

Consider `CN(C)CCCN1CCN(CCCn2c(O)c3n(c2=O)Cc2ccccc2C3)CC1` [(S)-2-{3-[4-(3-Dimethylamino-propyl)-piperazin-1-yl]-propyl}-10,10a-dihydro-5H-imidazo[1,5-b]isoquinoline-1,3-dione], for which the IC50 was > 100 nM.

`O=c1n(CCCNC2CCN(Cc3ccccc3)CC2)c(O)c2n1Cc1ccccc1C2` [(S)-2-[3-(1-Benzyl-piperidin-4-ylamino)-propyl]-10,10a-dihydro-5H-imidazo[1,5-b]isoquinoline-1,3-dione] displayed an IC50 of 82.3 nM.

For the compound `CN(CCCCn1c(O)c2n(c1=O)Cc1ccccc1C2)Cc1ccccc1` [(S)-2-[4-(Benzyl-methyl-amino)-butyl]-10,10a-dihydro-5H-imidazo[1,5-b]isoquinoline-1,3-dione], the IC50 was found to be 4.2 nM.

Compound `CN(CCCCCn1c(O)c2n(c1=O)Cc1ccccc1C2)CCc1ccccc1` [(S)-2-[5-(Methyl-phenethyl-amino)-pentyl]-10,10a-dihydro-5H-imidazo[1,5-b]isoquinoline-1,3-dione] returned an IC50 of 11.7 nM.

For `CN1CCN(CCCn2c(O)c3n(c2=O)Cc2ccccc2C3)CC1` [(S)-2-[3-(4-Methyl-piperazin-1-yl)-propyl]-10,10a-dihydro-5H-imidazo[1,5-b]isoquinoline-1,3-dione], the IC50 was > 100 nM.

For `CN(CCCn1c(O)c2n(c1=O)Cc1ccccc1C2)CCc1ccccc1` [(S)-2-[3-(Methyl-phenethyl-amino)-propyl]-10,10a-dihydro-5H-imidazo[1,5-b]isoquinoline-1,3-dione], the IC50 turned out to be 2.1 nM.

`CN(CCCCn1c(O)c2n(c1=O)Cc1ccccc1C2)CCc1ccccc1` [(S)-2-[4-(Methyl-phenethyl-amino)-butyl]-10,10a-dihydro-5H-imidazo[1,5-b]isoquinoline-1,3-dione] yielded an IC50 of 9.9 nM.

With `CC(C)NC(=O)CN1CCN(CCn2c(O)c3n(c2=O)Cc2ccccc2C3)CC1` [2-{4-[2-((S)-1,3-Dioxo-1,5,10,10a-tetrahydro-imidazo[1,5-b]isoquinolin-2-yl)-ethyl]-piperazin-1-yl}-N-isopropyl-acetamide], the IC50 was > 100 nM.

For `O=c1n(CCN2CCN(CCO)CC2)c(O)c2n1Cc1ccccc1C2` [(S)-2-{2-[4-(2-Hydroxy-ethyl)-piperazin-1-yl]-ethyl}-10,10a-dihydro-5H-imidazo[1,5-b]isoquinoline-1,3-dione], the IC50 was > 100 nM.

On to `CN(CCCn1c(O)c2n(c1=O)Cc1ccccc1C2)c1ccccc1` [(S)-2-[3-(Methyl-phenyl-amino)-propyl]-10,10a-dihydro-5H-imidazo[1,5-b]isoquinoline-1,3-dione], for which the IC50 was > 100 nM.

Turning to `CN(CCn1c(O)c2n(c1=O)Cc1ccccc1C2)Cc1ccccc1` [(S)-2-[2-(Benzyl-methyl-amino)-ethyl]-10,10a-dihydro-5H-imidazo[1,5-b]isoquinoline-1,3-dione], the IC50 was 4.5 nM. That is a single-digit nanomolar value.

As to `CN(C)CCCN1CCN(CCn2c(O)c3n(c2=O)Cc2ccccc2C3)CC1` [(S)-2-{2-[4-(3-Dimethylamino-propyl)-piperazin-1-yl]-ethyl}-10,10a-dihydro-5H-imidazo[1,5-b]isoquinoline-1,3-dione], the IC50 is > 1000 nM.

In turn, `CN(CCCCc1ccccc1)CCn1c(O)c2n(c1=O)Cc1ccccc1C2` [(S)-2-{2-[Methyl-(4-phenyl-butyl)-amino]-ethyl}-10,10a-dihydro-5H-imidazo[1,5-b]isoquinoline-1,3-dione] came in with an IC50 of 3.2 nM.

As for `O=c1n(CCCNCCCCc2ccccc2)c(O)c2n1Cc1ccccc1C2` [(S)-2-[3-(4-Phenyl-butylamino)-propyl]-10,10a-dihydro-5H-imidazo[1,5-b]isoquinoline-1,3-dione], the IC50 came to 10.5 nM.

For `O=c1n(CCCN2CCN(Cc3ccc4c(c3)OCO4)CC2)c(O)c2n1Cc1ccccc1C2` [(S)-2-[3-(4-Benzo[1,3]dioxol-5-ylmethyl-piperazin-1-yl)-propyl]-10,10a-dihydro-5H-imidazo[1,5-b]isoquinoline-1,3-dione], inhibition was half-maximal at 23.8 nM (IC50).

`CN(CCCc1ccccc1)CCn1c(O)c2n(c1=O)Cc1ccccc1C2` [(S)-2-{2-[Methyl-(3-phenyl-propyl)-amino]-ethyl}-10,10a-dihydro-5H-imidazo[1,5-b]isoquinoline-1,3-dione] came in with an IC50 of 13.6 nM.

`CN(CCc1ccccc1)CCn1c(O)c2n(c1=O)Cc1ccccc1C2` [(S)-2-[2-(Methyl-phenethyl-amino)-ethyl]-10,10a-dihydro-5H-imidazo[1,5-b]isoquinoline-1,3-dione]: the IC50 was found to be 12.6 nM.

Compound `CN(CCCCCc1ccccc1)CCn1c(O)c2n(c1=O)Cc1ccccc1C2` [(S)-2-{2-[Methyl-(5-phenyl-pentyl)-amino]-ethyl}-10,10a-dihydro-5H-imidazo[1,5-b]isoquinoline-1,3-dione] displayed an IC50 of 2.9 nM.

Regarding `O=c1n(CCCN2CCN(CCO)CC2)c(O)c2n1Cc1ccccc1C2` [(S)-2-{3-[4-(2-Hydroxy-ethyl)-piperazin-1-yl]-propyl}-10,10a-dihydro-5H-imidazo[1,5-b]isoquinoline-1,3-dione], the IC50 was > 100 nM.

As for `CN1CCN(CCn2c(O)c3n(c2=O)Cc2ccccc2C3)CC1` [(S)-2-[2-(4-Methyl-piperazin-1-yl)-ethyl]-10,10a-dihydro-5H-imidazo[1,5-b]isoquinoline-1,3-dione], the IC50 was > 100 nM.

`O=c1n(CCCN2CCN(Cc3ccccc3)CC2)c(O)c2n1Cc1ccccc1C2` [(S)-2-[3-(4-Benzyl-piperazin-1-yl)-propyl]-10,10a-dihydro-5H-imidazo[1,5-b]isoquinoline-1,3-dione] had an IC50 of 32 nM. This lies in the double-digit nanomolar range.

Turning to `O=c1n(CCCNCc2ccccc2)c(O)c2n1Cc1ccccc1C2` [(S)-2-(3-Benzylamino-propyl)-10,10a-dihydro-5H-imidazo[1,5-b]isoquinoline-1,3-dione], the concentration for half-maximal inhibition (IC50) was determined as 9.6 nM.

The term IC50 denotes the concentration at which inhibition is half-maximal.
